# Measured values as given in ChEMBL document CHEMBL1201861, “Genomics of Drug Sensitity in Cancer screening data, Wellcome Trust Sanger Institute”.
# Key:
# Test in all cases: cells
# [1] = system: OMC-1; type: functional, cell-based, Homo sapiens; conditions: Homo sapiens, OMC-1;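 note: growth inhibition of the OMC-1 cell line, measured by a cell viability assay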
# Description: SANGER: Inhibition of human OMC-1 cell growth in a cell viability assay.
# [2] = system: NCI-H1304; type: functional, cell-based, Homo sapiens; conditions: Homo sapiens, NCI-H1304;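 note: growth inhibition of the cancer cell line, measured in a cell viability assay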
# Description: SANGER: Inhibition of human NCI-H1304 cell growth in a cell viability assay.
# [3] = system: ES5; type: functional, cell-based, Homo sapiens; conditions: Homo sapiens, ES5;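 note: growth inhibition of human ES5 cells, read out by a cell viability assay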
# Description: SANGER: Inhibition of human ES5 cell growth in a cell viability assay.
# [4] = system: NCI-H2126; type: functional, cell-based, Homo sapiens; conditions: Homo sapiens, NCI-H2126;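 note: growth inhibition of the cancer cell line, determined with a cell viability readout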
# Description: SANGER: Inhibition of human NCI-H2126 cell growth in a cell viability assay.
# [5] = system: RH-1; type: functional, cell-based, Homo sapiens; conditions: Homo sapiens, RH-1;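 note: growth inhibition of human RH-1 cells, read out with a cell viability assay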
# Description: SANGER: Inhibition of human RH-1 cell growth in a cell viability assay.
# [6] = system: MS-1; type: functional, cell-based, Homo sapiens; conditions: Homo sapiens, MS-1;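 note: growth inhibition of MS-1 cells, read out by cell viability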
# Description: SANGER: Inhibition of human MS-1 cell growth in a cell viability assay.
# [7] = system: KM-H2; type: functional, cell-based, Homo sapiens; conditions: Homo sapiens, KM-H2;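 note: growth inhibition of KM-H2 cells, read out by a cell viability assay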
# Description: SANGER: Inhibition of human KM-H2 cell growth in a cell viability assay.
# [8] = system: SNU-5; type: functional, cell-based, Homo sapiens; conditions: Homo sapiens, SNU-5;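 note: cell viability readout used to measure growth inhibition in human NCI-SNU-5 cells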
# Description: SANGER: Inhibition of human NCI-SNU-5 cell growth in a cell viability assay.
# [9] = system: HCC2218; type: functional, cell-based, Homo sapiens; conditions: Homo sapiens, HCC2218;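 note: cell viability assay read-out, with IC50 given as the concentration that inhibits growth of the cell line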
# Description: SANGER: Inhibition of human HCC2218 cell growth in a cell viability assay.
# [10] = system: Becker; type: functional, cell-based, Homo sapiens; conditions: Homo sapiens, Becker;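 note: growth inhibition of Becker cells, read out with a cell viability assay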
# Description: SANGER: Inhibition of human Becker cell growth in a cell viability assay.
# [11] = system: CTV-1; type: functional, cell-based, Homo sapiens; conditions: Homo sapiens, CTV-1;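 note: growth inhibition of the cell line, read out with a cell viability assay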
# Description: SANGER: Inhibition of human CTV-1 cell growth in a cell viability assay.
# [12] = system: NB69; type: functional, cell-based, Homo sapiens; conditions: Homo sapiens, NB69;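 note: growth inhibition of NB69 cells, determined by a cell viability assay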
# Description: SANGER: Inhibition of human NB69 cell growth in a cell viability assay.
# [13] = system: NCI-H1648; type: functional, cell-based, Homo sapiens; conditions: Homo sapiens, NCI-H1648;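 note: cell viability assay measuring inhibition of NCI-H1648 cell growth, from the Sanger screening data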
# Description: SANGER: Inhibition of human NCI-H1648 cell growth in a cell viability assay.
# [14] = system: COLO-824; type: functional, cell-based, Homo sapiens; conditions: Homo sapiens, COLO-824
# Description: SANGER: Inhibition of human COLO-824 cell growth in a cell viability assay.
# [15] = system: ALL-PO; type: functional, cell-based, Homo sapiens; conditions: Homo sapiens, ALL-PO;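 note: growth inhibition of ALL-PO cells, read out by a cell viability assay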
# Description: SANGER: Inhibition of human ALL-PO cell growth in a cell viability assay.
# [16] = system: SCH; type: functional, cell-based, Homo sapiens; conditions: Homo sapiens, SCH;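 note: growth inhibition of human SCH cells, read out in a cell viability assay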
# Description: SANGER: Inhibition of human SCH cell growth in a cell viability assay.
# [17] = system: NB6; type: functional, cell-based, Homo sapiens; conditions: Homo sapiens, NB6;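 note: growth inhibition of NB6 cells, read out by a cell viability assay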
# Description: SANGER: Inhibition of human NB6 cell growth in a cell viability assay.
# [18] = system: TE-6; type: functional, cell-based, Homo sapiens; conditions: Homo sapiens, TE-6;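 note: growth inhibition of TE-6 cells, read out with a cell viability assay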
# Description: SANGER: Inhibition of human TE-6 cell growth in a cell viability assay.
# [19] = system: SNU-C2B; type: functional, cell-based; conditions: Homo sapiens;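 note: cell viability readout used to measure compound-driven suppression of SNU-C2B cell proliferation, IC50 marking half-maximal growth inhibition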
# Description: SANGER: Inhibition of human SNU-C2B cell growth in a cell viability assay.
# [20] = system: NCI-H1299; type: functional, cell-based; conditions: Homo sapiens;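 note: growth inhibition of human NCI-H1299 cells, read out by a cell viability assay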
# Description: SANGER: Inhibition of human NCI-H1299 cell growth in a cell viability assay.
# [21] = system: Calu-6; type: functional, cell-based, Homo sapiens; conditions: Homo sapiens, Calu-6;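 note: growth of human Calu-6 cells, read out by a cell viability assay, IC50 marking inhibition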
# Description: SANGER: Inhibition of human Calu-6 cell growth in a cell viability assay.
# [22] = system: COLO-320-HSR; type: functional, cell-based, Homo sapiens; conditions: Homo sapiens, COLO-320-HSR;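 note: growth inhibition of COLO-320-HSR cells, determined with a cell viability assay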
# Description: SANGER: Inhibition of human COLO-320-HSR cell growth in a cell viability assay.
# [23] = system: TE-11; type: functional, cell-based; conditions: Homo sapiens;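 note: growth inhibition of human TE-11 cells, read out by a cell viability assay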
# Description: SANGER: Inhibition of human TE-11 cell growth in a cell viability assay.
# [24] = system: ES3; type: functional, cell-based, Homo sapiens; conditions: Homo sapiens, ES3;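 note: growth inhibition of ES3 cells, read out with a cell viability assay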
# Description: SANGER: Inhibition of human ES3 cell growth in a cell viability assay.
# [25] = system: TE-1; type: functional, cell-based, Homo sapiens; conditions: Homo sapiens, TE-1;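 note: growth inhibition of the human TE-1 cell line, read out with a cell viability assay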
# Description: SANGER: Inhibition of human TE-1 cell growth in a cell viability assay.
# [26] = system: LB2241-RCC; type: functional, cell-based, Homo sapiens; conditions: Homo sapiens, LB2241-RCC;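 note: cell viability assay measuring how strongly the cultured human renal carcinoma line is prevented from growing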
# Description: SANGER: Inhibition of human LB2241-RCC cell growth in a cell viability assay.
# [27] = system: EOL1; type: functional, cell-based, Homo sapiens; conditions: Homo sapiens, EOL1;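 note: growth inhibition of EoL-1 cells, read out by a cell viability assay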
# Description: SANGER: Inhibition of human EoL-1-cell cell growth in a cell viability assay.
# [28] = system: NCI-N87; type: functional, cell-based; conditions: Homo sapiens;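 note: growth inhibition of human NCI-N87 cells, read out with a cell viability assay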
# Description: SANGER: Inhibition of human NCI-N87 cell growth in a cell viability assay.
# [29] = system: COR-L88; type: functional, cell-based, Homo sapiens; conditions: Homo sapiens, COR-L88;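 note: growth inhibition of COR-L88 cells, read out with a cell viability assay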
# Description: SANGER: Inhibition of human COR-L88 cell growth in a cell viability assay.
# [30] = system: LS-411N; type: functional, cell-based, Homo sapiens; conditions: Homo sapiens, LS-411N
# [31] = system: NB13; type: functional, cell-based, Homo sapiens; conditions: Homo sapiens, NB13;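 note: cell viability readout measuring growth inhibition of human NB13 cells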
# Description: SANGER: Inhibition of human NB13 cell growth in a cell viability assay.
# [32] = system: L-428; type: functional, cell-based, Homo sapiens; conditions: Homo sapiens, L-428
# Description: SANGER: Inhibition of human L-428 cell growth in a cell viability assay.
# [33] = system: SW 954; type: functional, cell-based, Homo sapiens; conditions: Homo sapiens, SW 954;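 note: growth inhibition of SW954 human cancer cells, read out as cell viability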
# Description: SANGER: Inhibition of human SW954 cell growth in a cell viability assay.
# [34] = system: NCI-H1155; type: functional, cell-based, Homo sapiens; conditions: Homo sapiens, NCI-H1155;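 note: cell growth inhibition measured by a viability assay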
# Description: SANGER: Inhibition of human NCI-H1155 cell growth in a cell viability assay.
# [35] = system: LB771-HNC; type: functional, cell-based; conditions: Homo sapiens;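 note: growth inhibition of LB771-HNC human cells, read out with a cell viability assay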
# Description: SANGER: Inhibition of human LB771-HNC cell growth in a cell viability assay.
# [36] = system: KU812 cell line; type: functional, cell-based, Homo sapiens; conditions: Homo sapiens, KU812;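 note: growth inhibition of KU812 cells, read out with a cell viability assay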
# Description: SANGER: Inhibition of human KU812 cell growth in a cell viability assay.
# [37] = system: BT-474; type: functional, cell-based, Homo sapiens; conditions: Homo sapiens, BT-474
# Description: SANGER: Inhibition of human BT-474 cell growth in a cell viability assay.
# [38] = system: C8166; type: functional, cell-based, Homo sapiens; conditions: Homo sapiens, C8166;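 note: growth inhibition of human C8166 cells measured by a cell viability assay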
# Description: SANGER: Inhibition of human C8166 cell growth in a cell viability assay.
# [39] = system: RS4-11; type: functional, cell-based, Homo sapiens; conditions: Homo sapiens, RS4-11;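 note: growth inhibition of RS4-11 cells, read out by a cell viability assay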
# Description: SANGER: Inhibition of human RS4-11 cell growth in a cell viability assay.
# [40] = system: SW684; type: functional, cell-based, Homo sapiens; conditions: Homo sapiens, SW684; read-out: IC50;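 note: growth inhibition of human SW684 cells, measured by a cell viability assay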
# Description: SANGER: Inhibition of human SW684 cell growth in a cell viability assay.
# [41] = system: K562; type: functional, cell-based, Homo sapiens; conditions: Homo sapiens, K562
# Description: SANGER: Inhibition of human K-562 cell growth in a cell viability assay.
# [42] = system: JVM-3; type: functional, cell-based, Homo sapiens; conditions: Homo sapiens, JVM-3;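 note: growth inhibition of human JVM-3 cells, read out with a cell viability assay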
# Description: SANGER: Inhibition of human JVM-3 cell growth in a cell viability assay.
# [43] = system: COLO-668; type: functional, cell-based, Homo sapiens; conditions: Homo sapiens, COLO-668
# Description: SANGER: Inhibition of human COLO-668 cell growth in a cell viability assay.
# [44] = system: SK-MEL-2; type: functional, cell-based, Homo sapiens; conditions: Homo sapiens, SK-MEL-2;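 note: growth inhibition of human SK-MEL-2 cells measured with a cell viability assay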
# Description: SANGER: Inhibition of human SK-MEL-2 cell growth in a cell viability assay.
# [45] = system: NKM-1; type: functional, cell-based, Homo sapiens; conditions: Homo sapiens, NKM-1;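 note: growth inhibition of NKM-1 cells, read out with a cell viability assay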
# Description: SANGER: Inhibition of human NKM-1 cell growth in a cell viability assay.
# [46] = system: NOMO-1; type: functional, cell-based, Homo sapiens; conditions: Homo sapiens, NOMO-1;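 note: growth inhibition of human NOMO-1 cells measured by a cell viability assay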
# Description: SANGER: Inhibition of human NOMO-1 cell growth in a cell viability assay.
# [47] = system: MN-60; type: functional, cell-based, Homo sapiens; conditions: Homo sapiens, MN-60;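 note: growth inhibition of the MN-60 cell line, determined with a cell viability assay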
# Description: SANGER: Inhibition of human MN-60 cell growth in a cell viability assay.
# [48] = system: DB; type: functional, cell-based, Homo sapiens; conditions: Homo sapiens, DB
# Description: SANGER: Inhibition of human DB cell growth in a cell viability assay.
# [49] = system: MZ2-MEL; type: functional, cell-based, Homo sapiens; conditions: Homo sapiens, MZ2-MEL;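 note: growth inhibition of MZ2-MEL cells read out with a cell viability assay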
# Description: SANGER: Inhibition of human MZ2-MEL cell growth in a cell viability assay.
# [50] = system: MOLT-16; type: functional, cell-based, Homo sapiens; conditions: Homo sapiens, MOLT-16;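 note: growth inhibition of human MOLT-16 cells, read out with a cell viability assay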
# Description: SANGER: Inhibition of human MOLT-16 cell growth in a cell viability assay.
structure (smiles),measurement,setting,value
NC(=O)Nc1cc(-c2cccc(F)c2)sc1C(=O)N[C@H]1CCCNC1 [AZD-7762],IC50,[1],575 nM
same,IC50,[2],> 2000 nM
same,IC50,[3],135 nM
same,IC50,[4],> 2000 nM
same,IC50,[5],227 nM
same,IC50,[6],> 2000 nM
same,IC50,[7],1220 nM
same,IC50,[8],> 2000 nM
same,IC50,[9],> 2000 nM
same,IC50,[10],658 nM
same,IC50,[11],39 nM
same,IC50,[12],705 nM
same,IC50,[13],> 2000 nM
same,IC50,[14],> 2000 nM
same,IC50,[15],242 nM
same,IC50,[16],1330 nM
same,IC50,[17],985 nM
same,IC50,[18],> 2000 nM
same,IC50,[19],281 nM
same,IC50,[20],556 nM
same,IC50,[21],1410 nM
same,IC50,[22],1000 nM
same,IC50,[23],453 nM
same,IC50,[24],102 nM
same,IC50,[25],1210 nM
same,IC50,[26],61 nM
same,IC50,[27],< 7.81 nM
same,IC50,[28],846 nM
same,IC50,[29],365 nM
same,IC50,[30],376 nM
same,IC50,[31],537 nM
same,IC50,[32],> 2000 nM
same,IC50,[33],401 nM
same,IC50,[34],739 nM
same,IC50,[35],559 nM
same,IC50,[36],168 nM
same,IC50,[37],> 2000 nM
same,IC50,[38],1910 nM
same,IC50,[39],203 nM
same,IC50,[40],> 2000 nM
same,IC50,[41],> 2000 nM
same,IC50,[42],230 nM
same,IC50,[43],> 2000 nM
same,IC50,[44],100 nM
same,IC50,[45],< 7.81 nM
same,IC50,[46],61.2 nM
same,IC50,[47],721 nM
same,IC50,[48],1700 nM
same,IC50,[49],> 2000 nM
same,IC50,[50],88.1 nM
CCCCCCCCCCCC1=C(O)C(=O)C=C(O)C1=O [EMBELIN],IC50,[1],12100 nM
same,IC50,[2],> 32000 nM
same,IC50,[3],> 32000 nM
same,IC50,[4],27900 nM
same,IC50,[5],13300 nM
same,IC50,[6],> 32000 nM
same,IC50,[7],26500 nM
same,IC50,[8],> 32000 nM
same,IC50,[9],13000 nM
same,IC50,[10],15800 nM
same,IC50,[11],9370 nM
same,IC50,[12],> 32000 nM
same,IC50,[13],9300 nM
same,IC50,[14],> 32000 nM
same,IC50,[15],3650 nM
same,IC50,[16],> 32000 nM
same,IC50,[17],> 32000 nM
same,IC50,[18],24300 nM
same,IC50,[19],> 32000 nM
same,IC50,[20],> 32000 nM
same,IC50,[21],4830 nM
same,IC50,[22],17100 nM
same,IC50,[23],> 32000 nM
same,IC50,[24],15400 nM
same,IC50,[25],21600 nM
same,IC50,[26],> 32000 nM
same,IC50,[27],6730 nM
same,IC50,[28],> 32000 nM
same,IC50,[29],> 32000 nM
same,IC50,[30],7490 nM
same,IC50,[31],16700 nM
same,IC50,[32],5390 nM
same,IC50,[33],31100 nM
same,IC50,[34],> 32000 nM
same,IC50,[35],> 32000 nM
same,IC50,[36],> 32000 nM
same,IC50,[37],> 32000 nM
same,IC50,[38],7640 nM
same,IC50,[39],10500 nM
same,IC50,[40],> 32000 nM
same,IC50,[41],31700 nM
same,IC50,[42],> 32000 nM
same,IC50,[43],> 32000 nM
same,IC50,[44],11700 nM
same,IC50,[45],> 32000 nM
same,IC50,[46],12300 nM
same,IC50,[47],> 32000 nM
same,IC50,[48],> 32000 nM
same,IC50,[49],6330 nM
same,IC50,[50],11900 nM
